Columns and labels:
Salmonella sp. = experiment: Sensitivity of bacteria to antibiotics dissolved in composition, diffusion into nutrient agar; assay type: cell-based; set-up: Rate of increase of sensitivity of bacteria (increase of diameters of zones of suppression vs control): concentration or dose not given beside the values; conditions: for Rate of increase of sensitivity of bacteria (increase of diameters of zones of suppression vs control): Salmonella, antibiotic dissolved in composition pH=7.9, Eh=−230 mV; for change of strain sensitivity: antibiotic dissolved in composition
Method: (§1) It was used the method of preparations diffusion into nutrient agar. […] It was used sterilized water with Eh=250 mV, SCE, pH=7.9 and mineralization 350 mg/l for control.

Klebsiella pneumoniae = experiment: as above; assay type: cell-based; set-up: Rate of increase of sensitivity of bacteria (increase of diameters of zones of suppression vs control): concentration or dose not given beside the values; conditions: for Rate of increase of sensitivity of bacteria (increase of diameters of zones of suppression vs control): Clebsiella, antibiotic dissolved in composition pH=7.9, Eh=−230 mV
Method: as §1

S. aureus = experiment: as above; assay type: cell-based; conditions: for Rate of increase of sensitivity of bacteria (increase of diameters of zones of suppression vs control): Staphylococcus, antibiotic dissolved in composition pH=7.9, Eh=−230 mV
Method: as §1

Shigella sp. = experiment: as above; assay type: cell-based; conditions: for Rate of increase of sensitivity of bacteria (increase of diameters of zones of suppression vs control): Shigella, antibiotic dissolved in composition pH=7.9, Eh=−230 mV; for change of strain sensitivity: antibiotic dissolved in composition
Method: as §1

[1] = Stabilization of redox properties of water solution, 6 months storage at 50° C after autoclaving; assay type: physicochemical; conditions: autoclaved
Method: Water from water supply system with initial characteristics: Eh=+260 mV, SCE, and pH 6.7, is directed to the device of “Izumrud”-type, which is manufactured in Russia. On the output characteristics of water have the values: […] After sterilization these flasks with mentioned water solutions are put into the thermostat at temperature 50° C. Flasks with water solutions corresponding to this invention and stored at the mentioned temperature, protected from light, during 6 months. After 6 months flasks are opened, and the redox potential is measured.

[2] = Content of MDA in liposome dispersions (oxidation of phospholipids); assay type: physicochemical; conditions: Yolk lecithin liposomes; 1 hour
Method: In the experiment liposomes are made by mixing and ultrasound treatment of phospholipids of yolk and the water solution, corresponding to this invention, with specified redox properties, containing glycine. Liposomes, prepared by this method, are the milk-white suspension. […] Electrochemically activated water: anomalous properties, mechanism of biological effect. Moscow 1997, […]. 152). There was also determined the rate of oxidation of phospholipids according to content of dialdehyde malonate (DMA).

[3] = antibiotic dissolved in composition

Molecule	Rate of increase of sensitivity of bacteria (increase of diameters of zones of suppression vs control) (Salmonella sp.) [%]	Rate of increase of sensitivity of bacteria (increase of diameters of zones of suppression vs control) (Klebsiella pneumoniae) [%]	Rate of increase of sensitivity of bacteria (increase of diameters of zones of suppression vs control) (S. aureus) [%]	Rate of increase of sensitivity of bacteria (increase of diameters of zones of suppression vs control) (Shigella sp.) [%]	pH after 6 months ([1]; 0.005% of weight)	pH after 6 months ([1]; 0.5% of weight)	pH after 6 months ([1]; 10% of weight)	also measured
NCC[C@H](O)C(=O)N[C@@H]1C[C@H](N)[C@@H](O[C@H]2O[C@H](CN)[C@@H](O)[C@H](O)[C@H]2O)[C@H](O)[C@H]1O[C@H]1O[C@H](CO)[C@@H](O)[C@H](N)[C@H]1O [Amicacin]	18	34	4	38				change of sensitivity (Klebsiella pneumoniae; [3]): increased; change of strain sensitivity (Shigella sp.): from medium sensitive to sensitive
CC1(C)S[C@@H]2[C@H](NC(=O)[C@H](N)c3ccccc3)C(=O)N2[C@H]1C(=O)O [Ampicillin]	26	7	22	44				change of strain sensitivity (Salmonella sp.): from medium sensitive to sensitive; change of sensitivity (S. aureus; [3]): increased; change of strain sensitivity (Shigella sp.): from resistant to sensitive
NC(=O)C[C@H](N)C(=O)O [Asparagine]					5.9	6.9	7.0	
O=C(N[C@H](CO)[C@H](O)c1ccc([N+](=O)[O-])cc1)C(Cl)Cl [Chloramphenicol]	6	5	3	17				
N[C@@H](CS)C(=O)O [Cysteine]					7.3	7.8	6.9	
NC(=O)CC[C@H](N)C(=O)O [Glutamine]					5.8	7.2	7.2	
NCC(N)=O [Glycine amide]					6.5	7.4	7.0	
NCC(=O)O [Glycine]					7.2	7.9	7.7	
NC[C@H]1O[C@H](O[C@H]2[C@H](O)[C@@H](O[C@H]3O[C@H](CO)[C@@H](O)[C@H](N)[C@H]3O)[C@H](N)C[C@@H]2N)[C@H](O)[C@@H](O)[C@@H]1O [Kanamycin]	18	12	8	35				
CCn1cc(C(=O)O)c(=O)c2ccc(C)nc21 [Nalidixic acid]	42	11	3	33				change of strain sensitivity (Salmonella sp.): from resistant to sensitive
N[C@@H](CO)C(=O)O [Serine]					7.1	7.8	7.6	
C[C@@H](O)[C@H](N)C(=O)O [Threonine]					7.1	7.5	7.4	
N[C@@H](Cc1ccc(O)cc1)C(=O)O [Tyrosine]					7.2	7.4	7.2	Eh after 6 months ([1]; 0.005% of weight): −5 mV; Eh after 6 months ([1]; 0.5% of weight): −80 mV; Eh after 6 months ([1]; 10% of weight): −30 mV
Cc1cc(C(C)(C)C)c(O)c(C(C)(C)C)c1 [Water + agidol (1.0%), agidol]								Content of MDA [2]: 2.0 nmol/mL
Cc1cc(C(C)(C)C)c(O)c(C(C)(C)C)c1 [Water + butyl-hydroxytoluene (0.1%), butyl-hydroxytoluene]								Content of MDA [2]: 2.7 nmol/mL
CC(=O)Oc1c(C)c(C)c2c(c1C)CCC(C)(CCC[C@H](C)CCC[C@H](C)CCCC(C)C)O2 (some centres unmarked) [Water + tocopherol acetate (2%), tocopherol acetate]								Content of MDA [2]: 3.1 nmol/mL
Gelatin					6.8	7.3	7.6	
Gentamycin	47	6	11	40				change of strain sensitivity (Salmonella sp.): from resistant to sensitive; change of strain sensitivity (Shigella sp.): from resistant to sensitive
